Data: patent publication US8067452B2, “3-hydroxyisothiazole-4-carboxamidine derivatives as CHK2 inhibitors” (Valeant Pharmaceuticals International, priority 2007, dated 2011)

Molecular target: T1, Chk2 (Homo sapiens, UniProt O96017)
T1 construct: GST; purchased Upstate (Lake Placid, N.Y.)
Assay: In vitro kinase assay with recombinant Chk2 (MBP phosphorylation, [γ-33P]ATP)
Format: biochemical
Details: recombinant human GST-Chk2 10 nM, 25 μM MBP, 100 μM ATP, 30 min at 24° C.; read-out: The enzymatic IC50 values of compounds against Chk2
Protocol: In vitro kinase assays with recombinant Chk1 and Chk2. Recombinant human GST-Chk1 and GST-Chk2 proteins were purchased from Upstate (Lake Placid, N.Y.). Assay conditions were based on published protocols with minor modifications. Briefly, 10 nM of Chk1 or Chk2 was used to phosphorylate 25 μM myelin basic protein (MBP) (Invitrogen, Carlsbad, Calif.) This reaction took place in a buffer that contained 8 mM MOPS, pH 7.2, 10 mM β-glycerol phosphate, 1.5 mM EGTA, 0.4 mM EDTA, 0.4 mM sodium orthovanadate, 100 μM ATP, 1 μCi [γ-^33P] ATP, 15 mM MgCl2, 0.4 mM DTT, 0.006% Brij-35, 1% glycerol and 0.2 mg/ml BSA in a final volume of 25 μl. The reaction was incubated for 30 minutes at 24° C. and was terminated by adding 100 μl of 1% trichloroacetic acid. The quenched solution was incubated for 5 min at room temperature to allow the protein to precipitate and then subsequently transferred to a 96-well white GF/B filter plate (Perkin Elmer, Wellesley, Mass.) using a Perkin Elmer Filtermate Universal Harvester. The filter plate was washed ten times with water and once with ethanol before completely drying. 40 μL of Microscint™ (Perkin Elmer, Wellesley, Mass.) was added to each well and the radioactivity that was incorporated into MBP was counted using a Perkin Elmer TopCount. The compound was titrated and its IC50 values against both Chk1 and Chk2 were determined. The reported IC50 values are the average of at least two sets of data. To determine the competitive nature of the compound with ATP, the compound concentration was varied from 0-200 nM while ATP was varied from 50-500 μM in the assays to assess the ATP effect on inhibition. Prism 4.0 software (GraphPad, San Diego Calif.) was used for the IC50 determination and Lineweaver-Burk kinetic analysis.

T1 sequence (O96017 whole entry): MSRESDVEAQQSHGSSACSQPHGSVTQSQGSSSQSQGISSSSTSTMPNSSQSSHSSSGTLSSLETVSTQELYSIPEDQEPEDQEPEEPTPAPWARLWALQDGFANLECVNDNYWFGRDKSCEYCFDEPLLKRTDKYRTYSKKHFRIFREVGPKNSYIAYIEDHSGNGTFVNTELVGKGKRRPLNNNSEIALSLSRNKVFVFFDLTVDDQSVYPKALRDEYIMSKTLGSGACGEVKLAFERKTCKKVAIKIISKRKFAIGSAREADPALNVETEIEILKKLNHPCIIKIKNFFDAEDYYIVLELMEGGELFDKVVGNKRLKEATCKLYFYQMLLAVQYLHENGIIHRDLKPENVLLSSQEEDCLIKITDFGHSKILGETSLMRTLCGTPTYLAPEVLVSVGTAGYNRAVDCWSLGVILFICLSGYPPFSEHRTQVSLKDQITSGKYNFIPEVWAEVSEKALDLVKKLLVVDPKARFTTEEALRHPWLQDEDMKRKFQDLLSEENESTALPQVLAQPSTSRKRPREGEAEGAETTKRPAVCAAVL

SMILES	IC50 [µM]
N=C(NCCO)c1c(O)nsc1Nc1ccc(Nc2ccc(Br)cc2)cc1 [Entry 3]	0.001 to 0.5
N=C(NCC1CCCCC1)c1c(O)nsc1Nc1ccc(Nc2ccccc2)cc1 [Entry 10]	1 to 2
N=C(NCCCCO)c1c(O)nsc1Nc1ccc(Nc2ccc(Br)cc2)cc1 [Entry 5]	0.001 to 0.5
N=C(NCC(O)CO)c1c(O)nsc1Nc1ccc(Nc2ccc(Br)cc2)cc1 (stereo not shown) [Entry 6]	0.001 to 0.5
N=C(NCC1CCCCC1)c1c(O)nsc1Nc1ccc(Nc2ccc(Br)cc2)cc1 [Entry 4]	0.001 to 0.5
CC(CO)NC(=N)c1c(O)nsc1Nc1ccc(Nc2ccc(Br)cc2)cc1 (stereo not shown) [Entry 2]	0.001 to 0.5
CC(C)NC(=N)c1c(O)nsc1Nc1ccc(Nc2ccc(Br)cc2)cc1 [Entry 1]	0.001 to 0.5

Next, values leading:

IC50 [µM]	SMILES
0.5 to 1	N=C(NCCO)c1c(O)nsc1Nc1ccc(Nc2ccccc2)cc1 [Entry 9]
0.001 to 0.5	CC(C)NC(=N)c1c(O)nsc1Nc1ccc(Nc2ccccc2)cc1 [Entry 7]
1 to 2	N=C(NCCCCO)c1c(O)nsc1Nc1ccc(Nc2ccccc2)cc1 [Entry 11]
0.001 to 0.5	N=C(NCc1cccc2ccccc12)c1c(O)nsc1Nc1ccc(Nc2ccccc2)cc1 [Entry 13]
0.001 to 0.5	CC(CO)NC(=N)c1c(O)nsc1Nc1ccc(Nc2ccccc2)cc1 (stereo not shown) [Entry 8]
0.5 to 1	N=C(NCC(O)CO)c1c(O)nsc1Nc1ccc(Nc2ccccc2)cc1 (stereo not shown) [Entry 12]
